Measurements reported in the kinase profiling compilation of Christmann-Franck et al. (2016).
Where “and” joins values, the source holds several entries; their conditions need not be identical. Equal entries are not always repeated.

Key:
Test in all cases: KINOMEscan competition binding
Conditions in all cases: compound 10.0 µM
[1] = system: ABL1 (human), P00519 [Y253F]
[2] = biological target: AKT1 (human) (UniProt P31749)
[3] = biological target: AURKA (human) (UniProt O14965)
[4] = biological target: BMPR1A (human) (UniProt P36894)
[5] = biological target: BMX (human) (UniProt P51813)
Sequence of BMX (human) (P51813 whole entry, looked up): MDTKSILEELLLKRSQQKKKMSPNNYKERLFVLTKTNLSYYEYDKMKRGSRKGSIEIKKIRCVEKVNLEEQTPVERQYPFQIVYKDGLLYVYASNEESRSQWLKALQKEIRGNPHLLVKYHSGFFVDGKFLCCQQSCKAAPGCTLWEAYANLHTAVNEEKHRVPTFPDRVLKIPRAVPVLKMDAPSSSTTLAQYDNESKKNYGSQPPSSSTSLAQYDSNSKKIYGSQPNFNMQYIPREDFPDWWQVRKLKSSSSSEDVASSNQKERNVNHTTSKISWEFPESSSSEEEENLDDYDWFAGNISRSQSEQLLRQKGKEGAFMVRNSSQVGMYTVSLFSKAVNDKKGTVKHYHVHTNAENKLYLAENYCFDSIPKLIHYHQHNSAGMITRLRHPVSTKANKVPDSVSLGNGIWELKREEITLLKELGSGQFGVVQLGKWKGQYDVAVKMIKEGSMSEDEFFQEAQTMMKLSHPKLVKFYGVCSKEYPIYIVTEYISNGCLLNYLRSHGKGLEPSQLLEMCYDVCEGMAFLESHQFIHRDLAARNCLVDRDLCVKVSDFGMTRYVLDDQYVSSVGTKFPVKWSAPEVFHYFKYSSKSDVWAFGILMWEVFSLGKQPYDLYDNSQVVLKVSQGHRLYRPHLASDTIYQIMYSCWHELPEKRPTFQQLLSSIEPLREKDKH

[6] = biological target: CAMK1 (human) (UniProt Q14012)
[7] = biological target: CDK17 (human) (UniProt Q00537)
[8] = biological target: CDK5 (human) (UniProt Q00535)
[9] = biological target: CHEK2 (human) (UniProt O96017)
[10] = biological target: DDR2 (human) (UniProt Q16832)
[11] = biological target: EGFR (human) (UniProt P00533)
[12] = system: EGFR (human), P00533 [G719C; 746-750 del]
[13] = biological target: EPHA1 (human) (UniProt P21709)
[14] = biological target: EPHA2 (human) (UniProt P29317)
[15] = biological target: FGFR3 (human) (UniProt P22607)
[16] = biological target: FLT4 (human) (UniProt P35916)
[17] = biological target: IRAK3 (human) (UniProt Q9Y616)
[18] = biological target: LATS2 (human) (UniProt Q9NRM7)
[19] = biological target: LYN (human) (UniProt P07948)
Sequence of LYN (human) (P07948 whole entry, looked up): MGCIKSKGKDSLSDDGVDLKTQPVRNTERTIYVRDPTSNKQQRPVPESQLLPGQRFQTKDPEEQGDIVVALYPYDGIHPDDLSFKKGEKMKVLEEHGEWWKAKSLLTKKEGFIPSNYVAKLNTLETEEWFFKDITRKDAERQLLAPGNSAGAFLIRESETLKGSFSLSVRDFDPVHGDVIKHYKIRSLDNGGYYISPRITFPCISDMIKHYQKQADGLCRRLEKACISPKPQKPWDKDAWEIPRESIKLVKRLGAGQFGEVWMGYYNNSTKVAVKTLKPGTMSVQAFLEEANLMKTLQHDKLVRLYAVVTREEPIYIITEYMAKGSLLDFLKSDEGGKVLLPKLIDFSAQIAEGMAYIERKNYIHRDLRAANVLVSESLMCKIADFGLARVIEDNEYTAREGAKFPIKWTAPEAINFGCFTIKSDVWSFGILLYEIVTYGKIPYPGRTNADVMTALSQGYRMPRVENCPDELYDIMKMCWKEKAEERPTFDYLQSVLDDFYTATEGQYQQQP

[20] = biological target: MAP4K1 (human) (UniProt Q92918)
[21] = biological target: MAPK12 (human) (UniProt P53778)
[22] = biological target: MAPKAPK2 (human) (UniProt P49137)
Sequence of MAPKAPK2 (human) (P49137 whole entry, looked up): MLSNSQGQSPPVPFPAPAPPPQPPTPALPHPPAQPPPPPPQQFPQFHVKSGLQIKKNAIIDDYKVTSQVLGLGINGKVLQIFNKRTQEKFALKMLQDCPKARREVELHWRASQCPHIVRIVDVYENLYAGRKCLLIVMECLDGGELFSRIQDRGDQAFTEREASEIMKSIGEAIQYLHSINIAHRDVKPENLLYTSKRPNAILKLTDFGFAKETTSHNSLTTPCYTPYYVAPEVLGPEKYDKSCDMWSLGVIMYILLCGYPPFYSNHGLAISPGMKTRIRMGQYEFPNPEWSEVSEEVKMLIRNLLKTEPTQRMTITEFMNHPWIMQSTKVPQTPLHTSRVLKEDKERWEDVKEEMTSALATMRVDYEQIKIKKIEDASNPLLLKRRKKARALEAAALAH

[23] = biological target: MERTK (human) (UniProt Q12866)
[24] = biological target: NEK9 (human) (UniProt Q8TD19)
Sequence of NEK9 (human) (Q8TD19 whole entry, looked up): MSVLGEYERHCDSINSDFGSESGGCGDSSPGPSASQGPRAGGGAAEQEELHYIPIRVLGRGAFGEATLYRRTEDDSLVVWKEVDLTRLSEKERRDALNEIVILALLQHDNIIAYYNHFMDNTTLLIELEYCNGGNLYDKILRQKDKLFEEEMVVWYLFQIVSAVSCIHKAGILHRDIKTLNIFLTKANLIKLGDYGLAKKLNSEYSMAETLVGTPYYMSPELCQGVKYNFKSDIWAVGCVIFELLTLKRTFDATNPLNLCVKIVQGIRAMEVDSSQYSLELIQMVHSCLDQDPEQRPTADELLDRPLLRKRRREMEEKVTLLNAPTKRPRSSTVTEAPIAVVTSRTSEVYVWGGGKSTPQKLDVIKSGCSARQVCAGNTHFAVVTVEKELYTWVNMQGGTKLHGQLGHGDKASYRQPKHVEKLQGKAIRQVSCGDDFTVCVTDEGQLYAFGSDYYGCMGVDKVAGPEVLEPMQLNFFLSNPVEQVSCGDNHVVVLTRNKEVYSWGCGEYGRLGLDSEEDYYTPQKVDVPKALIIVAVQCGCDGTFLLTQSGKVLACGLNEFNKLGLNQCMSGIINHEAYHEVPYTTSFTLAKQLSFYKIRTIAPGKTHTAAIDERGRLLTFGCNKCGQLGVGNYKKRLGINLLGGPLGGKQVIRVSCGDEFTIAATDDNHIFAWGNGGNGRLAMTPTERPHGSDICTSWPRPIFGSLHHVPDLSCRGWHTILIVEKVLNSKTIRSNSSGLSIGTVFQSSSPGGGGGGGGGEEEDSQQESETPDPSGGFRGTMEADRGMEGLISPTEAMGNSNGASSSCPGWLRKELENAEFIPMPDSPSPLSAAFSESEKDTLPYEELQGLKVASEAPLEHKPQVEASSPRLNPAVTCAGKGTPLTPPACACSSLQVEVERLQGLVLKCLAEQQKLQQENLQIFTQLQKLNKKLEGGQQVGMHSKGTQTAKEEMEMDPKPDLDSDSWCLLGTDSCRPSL

[25] = biological target: PDGFRA (human) (UniProt P16234)
[26] = biological target: PDPK1 (human) (UniProt O15530)
[27] = biological target: PIK3CA (human) (UniProt P42336)
[28] = biological target: PKMYT1 (human) (UniProt Q99640)
[29] = biological target: PKN1 (human) (UniProt Q16512)
[30] = biological target: PRKCE (human) (UniProt Q02156)
[31] = biological target: PRKCH (human) (UniProt P24723)
Sequence of PRKCH (human) (P24723 whole entry, looked up): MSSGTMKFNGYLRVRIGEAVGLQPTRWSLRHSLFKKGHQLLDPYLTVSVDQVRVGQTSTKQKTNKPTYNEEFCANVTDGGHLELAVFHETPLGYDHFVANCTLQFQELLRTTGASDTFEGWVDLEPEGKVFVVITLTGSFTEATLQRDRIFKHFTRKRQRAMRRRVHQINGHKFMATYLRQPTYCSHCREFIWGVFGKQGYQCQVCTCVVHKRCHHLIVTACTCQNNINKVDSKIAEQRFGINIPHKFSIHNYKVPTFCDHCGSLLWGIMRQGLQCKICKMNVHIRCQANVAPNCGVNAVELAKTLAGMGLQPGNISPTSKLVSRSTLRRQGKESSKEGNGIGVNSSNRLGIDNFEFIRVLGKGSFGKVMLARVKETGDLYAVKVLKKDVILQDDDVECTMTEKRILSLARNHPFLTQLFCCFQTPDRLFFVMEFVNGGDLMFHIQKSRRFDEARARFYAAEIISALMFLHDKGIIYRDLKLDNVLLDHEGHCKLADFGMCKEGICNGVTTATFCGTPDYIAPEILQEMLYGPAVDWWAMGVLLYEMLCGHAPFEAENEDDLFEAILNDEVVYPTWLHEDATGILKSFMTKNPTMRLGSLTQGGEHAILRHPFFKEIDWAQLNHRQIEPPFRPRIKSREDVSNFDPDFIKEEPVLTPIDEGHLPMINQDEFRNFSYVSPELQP

[32] = biological target: PRKCQ (human) (UniProt Q04759)
[33] = biological target: PTK6 (human) (UniProt Q13882)
[34] = system: RET (human), P07949 [V804M]
Sequence of RET (human), P07949 [V804M] (P07949 whole entry V804M, looked up): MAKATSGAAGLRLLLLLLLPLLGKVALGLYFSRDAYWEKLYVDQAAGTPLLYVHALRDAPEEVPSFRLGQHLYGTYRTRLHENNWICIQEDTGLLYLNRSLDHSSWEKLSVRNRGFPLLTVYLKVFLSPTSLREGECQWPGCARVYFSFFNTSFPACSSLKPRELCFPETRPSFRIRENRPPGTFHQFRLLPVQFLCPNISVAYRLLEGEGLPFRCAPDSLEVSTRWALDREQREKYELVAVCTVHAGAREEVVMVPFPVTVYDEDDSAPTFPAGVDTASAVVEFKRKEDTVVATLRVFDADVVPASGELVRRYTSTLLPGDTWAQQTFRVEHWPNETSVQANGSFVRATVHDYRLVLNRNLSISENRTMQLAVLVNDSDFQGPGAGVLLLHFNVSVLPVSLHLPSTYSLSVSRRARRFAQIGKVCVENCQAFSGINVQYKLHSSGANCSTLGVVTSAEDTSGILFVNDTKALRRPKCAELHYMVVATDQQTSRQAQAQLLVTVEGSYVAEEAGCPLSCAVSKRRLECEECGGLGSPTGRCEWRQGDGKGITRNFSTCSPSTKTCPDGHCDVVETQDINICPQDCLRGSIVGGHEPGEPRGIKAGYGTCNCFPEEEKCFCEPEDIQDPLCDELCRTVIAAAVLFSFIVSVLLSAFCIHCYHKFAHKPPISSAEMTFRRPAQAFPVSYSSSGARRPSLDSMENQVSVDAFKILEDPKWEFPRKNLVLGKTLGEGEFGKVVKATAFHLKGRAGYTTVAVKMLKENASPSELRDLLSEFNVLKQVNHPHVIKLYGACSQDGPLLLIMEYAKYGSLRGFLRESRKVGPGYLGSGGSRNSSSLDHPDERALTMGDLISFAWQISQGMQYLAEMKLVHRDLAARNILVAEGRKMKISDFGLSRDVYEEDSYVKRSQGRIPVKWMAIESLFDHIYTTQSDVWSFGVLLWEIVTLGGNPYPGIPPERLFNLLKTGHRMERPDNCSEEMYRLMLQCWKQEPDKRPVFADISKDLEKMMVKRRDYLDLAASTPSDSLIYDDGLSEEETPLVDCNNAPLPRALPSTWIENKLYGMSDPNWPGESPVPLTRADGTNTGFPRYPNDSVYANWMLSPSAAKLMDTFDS

[35] = biological target: ROCK2 (human) (UniProt O75116)
[36] = biological target: RPS6KA3 KD1 (human) (UniProt P51812)
[37] = biological target: RPS6KA5 KD1 (human) (UniProt O75582)
[38] = biological target: STK32B (human) (UniProt Q9NY57)
[39] = biological target: SYK (human) (UniProt P43405)
[40] = biological target: TEC (human) (UniProt P42680)
[41] = biological target: TIE1 (human) (UniProt P35590)
[42] = biological target: ZAP70 (human) (UniProt P43403)

Sequence of AURKA (human) (O14965 whole entry, looked up): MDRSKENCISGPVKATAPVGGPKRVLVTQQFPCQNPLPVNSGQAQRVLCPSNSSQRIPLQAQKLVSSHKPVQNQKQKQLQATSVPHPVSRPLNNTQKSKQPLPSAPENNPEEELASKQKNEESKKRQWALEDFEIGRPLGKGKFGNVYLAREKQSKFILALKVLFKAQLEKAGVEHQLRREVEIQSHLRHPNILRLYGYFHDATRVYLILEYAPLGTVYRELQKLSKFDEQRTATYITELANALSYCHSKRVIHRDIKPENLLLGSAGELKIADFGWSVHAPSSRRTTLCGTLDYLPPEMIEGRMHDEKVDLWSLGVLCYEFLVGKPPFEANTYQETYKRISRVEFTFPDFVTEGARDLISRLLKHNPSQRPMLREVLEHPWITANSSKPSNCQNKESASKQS

`CN1C(=O)c2ccccc2N(C)c2nc(NS(=O)(=O)c3ccc(N)cc3)ncc21` showed a kinase still bound, per cent of control [1] of 100%, a kinase still bound, per cent of control [2] of 100% and a kinase still bound, per cent of control [3] of 100%. For the same molecule, the kinase still bound, per cent of control [4] was 90%, the kinase still bound, per cent of control [5] was 100% and the kinase still bound, per cent of control [6] was 100%. It also gave a kinase still bound, per cent of control [7] of 100%, a kinase still bound, per cent of control [8] of 100% and a kinase still bound, per cent of control [9] of 100%. It also gave a kinase still bound, per cent of control [10] of 98%, a kinase still bound, per cent of control [11] of 100% and a kinase still bound, per cent of control [12] of 100%. It also gave a kinase still bound, per cent of control [13] of 100%, a kinase still bound, per cent of control [14] of 100% and a kinase still bound, per cent of control [15] of 100%. The kinase still bound, per cent of control [16] was 100%, the kinase still bound, per cent of control [17] was 100% and the kinase still bound, per cent of control [18] was 100%. It also gave a kinase still bound, per cent of control [19] of 100%, a kinase still bound, per cent of control [20] of 80% and a kinase still bound, per cent of control [21] of 100%. It also gave a kinase still bound, per cent of control [22] of 96%, a kinase still bound, per cent of control [23] of 82% and a kinase still bound, per cent of control [24] of 100%. The kinase still bound, per cent of control [25] was 100%, the kinase still bound, per cent of control [26] was 100% and the kinase still bound, per cent of control [27] was 100%. It also gave a kinase still bound, per cent of control [28] of 100%, a kinase still bound, per cent of control [29] of 85% and a kinase still bound, per cent of control [30] of 100%. For the same molecule, the kinase still bound, per cent of control [31] was 86%, the kinase still bound, per cent of control [32] was 100% and the kinase still bound, per cent of control [33] was 100%. For the same molecule, the kinase still bound, per cent of control [34] was 100%, the kinase still bound, per cent of control [35] was 100% and the kinase still bound, per cent of control [36] was 100%. The kinase still bound, per cent of control [37] was 99%, the kinase still bound, per cent of control [38] was 100% and the kinase still bound, per cent of control [39] was 100%. The kinase still bound, per cent of control [40] was 100%, the kinase still bound, per cent of control [41] was 100% and the kinase still bound, per cent of control [42] was 100%.

`COc1cc(N2CCN(C)CC2)ccc1Nc1ncc2c(n1)N(C)c1sccc1C(=O)N2C` showed a kinase still bound, per cent of control [1] of 99%, a kinase still bound, per cent of control [2] of 100% and a kinase still bound, per cent of control [3] of 75%. The kinase still bound, per cent of control [4] was 100%, the kinase still bound, per cent of control [5] was 100% and the kinase still bound, per cent of control [6] was 71%. The kinase still bound, per cent of control [7] was 85%, the kinase still bound, per cent of control [8] was 74% and the kinase still bound, per cent of control [9] was 77%. For the same molecule, the kinase still bound, per cent of control [10] was 91%, the kinase still bound, per cent of control [11] was 80% and 87% and the kinase still bound, per cent of control [12] was 82%. The kinase still bound, per cent of control [13] was 87%, the kinase still bound, per cent of control [14] was 100% and the kinase still bound, per cent of control [15] was 100%. For the same molecule, the kinase still bound, per cent of control [16] was 96%, the kinase still bound, per cent of control [17] was 77% and the kinase still bound, per cent of control [18] was 100%. For the same molecule, the kinase still bound, per cent of control [19] was 100%, the kinase still bound, per cent of control [20] was 82% and the kinase still bound, per cent of control [21] was 76%. For the same molecule, the kinase still bound, per cent of control [22] was 89%, the kinase still bound, per cent of control [23] was 100% and the kinase still bound, per cent of control [24] was 94%. For the same molecule, the kinase still bound, per cent of control [25] was 87%, the kinase still bound, per cent of control [26] was 93% and the kinase still bound, per cent of control [27] was 97%. For the same molecule, the kinase still bound, per cent of control [28] was 92%, the kinase still bound, per cent of control [29] was 91% and the kinase still bound, per cent of control [30] was 97%. For the same molecule, the kinase still bound, per cent of control [31] was 95%, the kinase still bound, per cent of control [32] was 92% and the kinase still bound, per cent of control [33] was 56%. For the same molecule, the kinase still bound, per cent of control [34] was 88%, the kinase still bound, per cent of control [35] was 57% and the kinase still bound, per cent of control [36] was 99%. The kinase still bound, per cent of control [37] was 86%, the kinase still bound, per cent of control [38] was 100% and the kinase still bound, per cent of control [39] was 100%. For the same molecule, the kinase still bound, per cent of control [40] was 91%, the kinase still bound, per cent of control [41] was 93% and the kinase still bound, per cent of control [42] was 74%.
